Reference: US20250346616A1 (DIZAL (JIANGSU) PHARMACEUTICAL CO., LTD., priority 2022, published 2025)

Key:
[1] = system: pMLC2; test: Cellular PD assay, pMLC2 in PASMC (western blot); format: cell-based; settings: Human Pulmonary Artery Smooth Muscle Cells, 30 min incubation
Protocol: (§1) PASMC (Human Pulmonary Artery Smooth Muscle Cells) were grown in Smooth Muscle Cell Growth medium (Promocell #C-22162). The cells were resuspended at 3×10^5 cells per well in 6-well plate in Smooth Muscle Cell Growth medium (Promocell #C-22162) and incubated compound concentration range: (10000/1111/333/111/37/12.3/4.1/0.41/0 nM) for 30 min.
(§2) Cells were then placed on ice and washed with ice-cold PBS. Cell lysates were prepared with 2×SDS. Separate proteins by SDS-PAGE 2 hr, transfer of proteins form gel to membrane 90 min, Blocking the membrane with 5% milk 1 hr and incubation in primary antibody overnight at 4° C., Incubate the membrane in HRP-conjugated secondary antibody diluted in blocking buffer (1:2000) for 1 hour at room temperature. Detection using Amersham ECL plus western blotting detection system (LAS4000). The purified product was analysed by SDS PAGE and the amount of target protein calculated by gray scanning by Multi-Gauge V3.0 software.

[2] = target: Recombinant ROCK1 (Homo sapiens (Human), UniProt Q13464); test: Lance Ultra Kinase Assay, ROCK1 inhibition; format: biochemical; settings: ATP at Km, 30 min pre-incubation, 1 h reaction
Protocol: (§3) The inhibition potency of compounds against these enzymes was assessed using Lance Ultra Kinase Assay. In brief, recombinant kinases were pre-incubated in the presence or absence of compound at room temperature for 30 minutes. The reaction was initiated by the addition of the ATP (Km) and substrate peptide which could be phosphorylated by kinases in the reaction. After 1 h incubation, the reaction was stopped by the addition of the detection reagent mix containing EDTA. The fluorescence was measured at 615 nm and 665 nm, respectively with excitation wavelength at 320 nm. The calculated signal ratio of 665 nm/615 nm is proportional to the kinase activity.

[3] = system: pMYPT1; test: Cellular PD assay, pMYPT1 in PASMC (western blot); format: cell-based; settings: Human Pulmonary Artery Smooth Muscle Cells, 30 min incubation
Protocol: as §1, §2

[4] = target: Recombinant ROCK2 (Homo sapiens (Human), UniProt O75116); test: Lance Ultra Kinase Assay, ROCK2 inhibition; format: biochemical; settings: ATP at Km, 30 min pre-incubation, 1 h reaction
Chain of Recombinant ROCK2 (O75116 whole entry): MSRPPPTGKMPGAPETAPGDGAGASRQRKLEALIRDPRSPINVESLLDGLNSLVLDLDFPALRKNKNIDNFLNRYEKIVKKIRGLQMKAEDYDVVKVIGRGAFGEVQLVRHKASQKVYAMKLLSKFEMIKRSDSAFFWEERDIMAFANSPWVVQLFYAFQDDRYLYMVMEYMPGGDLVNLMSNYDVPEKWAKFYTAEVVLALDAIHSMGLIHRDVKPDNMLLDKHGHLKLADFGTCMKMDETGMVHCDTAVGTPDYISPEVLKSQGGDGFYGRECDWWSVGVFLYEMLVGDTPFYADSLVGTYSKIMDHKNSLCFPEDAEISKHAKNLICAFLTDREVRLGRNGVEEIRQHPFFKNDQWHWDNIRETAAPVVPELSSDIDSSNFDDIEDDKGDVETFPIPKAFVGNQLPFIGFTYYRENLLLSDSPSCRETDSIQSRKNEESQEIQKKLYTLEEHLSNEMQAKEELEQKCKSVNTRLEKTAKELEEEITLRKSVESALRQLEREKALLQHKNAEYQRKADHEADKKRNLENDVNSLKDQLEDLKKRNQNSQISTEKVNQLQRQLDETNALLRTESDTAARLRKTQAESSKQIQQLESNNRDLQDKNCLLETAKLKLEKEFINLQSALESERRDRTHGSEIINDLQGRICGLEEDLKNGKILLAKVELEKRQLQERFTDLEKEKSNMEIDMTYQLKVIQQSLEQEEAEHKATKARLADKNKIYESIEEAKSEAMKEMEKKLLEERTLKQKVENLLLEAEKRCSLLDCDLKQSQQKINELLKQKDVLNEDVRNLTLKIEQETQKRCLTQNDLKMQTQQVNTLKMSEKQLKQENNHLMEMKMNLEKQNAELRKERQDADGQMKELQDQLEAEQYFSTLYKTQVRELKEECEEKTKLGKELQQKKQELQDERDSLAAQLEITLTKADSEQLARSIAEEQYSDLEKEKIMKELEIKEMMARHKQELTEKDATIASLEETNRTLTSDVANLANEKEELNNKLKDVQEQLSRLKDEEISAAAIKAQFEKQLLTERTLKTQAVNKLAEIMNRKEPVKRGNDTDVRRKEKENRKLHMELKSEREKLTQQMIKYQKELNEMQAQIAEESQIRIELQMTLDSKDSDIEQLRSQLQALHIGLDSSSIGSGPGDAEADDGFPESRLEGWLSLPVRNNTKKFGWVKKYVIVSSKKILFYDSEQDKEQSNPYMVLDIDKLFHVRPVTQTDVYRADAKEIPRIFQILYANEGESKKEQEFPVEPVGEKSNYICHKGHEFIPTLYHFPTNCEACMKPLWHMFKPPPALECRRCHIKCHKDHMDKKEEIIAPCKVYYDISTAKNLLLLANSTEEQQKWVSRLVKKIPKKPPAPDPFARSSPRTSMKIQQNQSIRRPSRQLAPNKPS
Protocol: as §3

Chain of Recombinant ROCK1 (Q13464 whole entry): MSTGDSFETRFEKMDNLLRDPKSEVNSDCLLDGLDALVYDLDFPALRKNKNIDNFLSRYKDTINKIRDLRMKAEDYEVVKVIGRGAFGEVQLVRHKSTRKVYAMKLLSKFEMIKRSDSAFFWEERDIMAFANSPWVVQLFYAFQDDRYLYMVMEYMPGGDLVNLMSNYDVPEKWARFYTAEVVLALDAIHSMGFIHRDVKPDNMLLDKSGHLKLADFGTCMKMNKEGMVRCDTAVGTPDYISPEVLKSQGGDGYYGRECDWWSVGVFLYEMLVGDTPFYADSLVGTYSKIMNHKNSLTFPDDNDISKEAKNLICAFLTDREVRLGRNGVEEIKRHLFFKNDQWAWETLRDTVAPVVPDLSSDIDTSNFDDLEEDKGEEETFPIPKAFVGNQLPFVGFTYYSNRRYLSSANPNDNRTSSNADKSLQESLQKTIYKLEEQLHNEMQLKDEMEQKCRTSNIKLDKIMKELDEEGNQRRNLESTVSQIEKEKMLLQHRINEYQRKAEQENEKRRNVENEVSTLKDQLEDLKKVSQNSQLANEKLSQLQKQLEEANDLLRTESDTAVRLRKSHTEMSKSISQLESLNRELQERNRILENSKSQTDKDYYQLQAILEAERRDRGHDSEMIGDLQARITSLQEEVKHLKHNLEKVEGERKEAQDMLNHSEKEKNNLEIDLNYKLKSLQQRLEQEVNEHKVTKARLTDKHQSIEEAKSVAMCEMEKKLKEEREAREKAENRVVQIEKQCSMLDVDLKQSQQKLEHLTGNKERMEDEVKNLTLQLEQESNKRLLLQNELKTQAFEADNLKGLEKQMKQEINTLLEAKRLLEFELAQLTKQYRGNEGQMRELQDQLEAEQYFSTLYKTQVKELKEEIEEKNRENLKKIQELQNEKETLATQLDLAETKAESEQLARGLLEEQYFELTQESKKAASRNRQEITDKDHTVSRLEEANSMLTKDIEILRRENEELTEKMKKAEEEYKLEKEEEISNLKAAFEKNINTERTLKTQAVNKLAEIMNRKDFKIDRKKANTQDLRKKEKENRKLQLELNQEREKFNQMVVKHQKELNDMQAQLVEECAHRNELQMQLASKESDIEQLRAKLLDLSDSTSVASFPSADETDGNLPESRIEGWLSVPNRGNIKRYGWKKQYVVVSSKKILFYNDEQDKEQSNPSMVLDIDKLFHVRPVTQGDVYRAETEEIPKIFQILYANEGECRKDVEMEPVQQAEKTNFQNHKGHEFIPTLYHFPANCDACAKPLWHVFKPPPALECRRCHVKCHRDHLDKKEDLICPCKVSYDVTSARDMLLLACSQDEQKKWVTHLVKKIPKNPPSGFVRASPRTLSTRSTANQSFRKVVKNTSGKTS

Row | SMILES | IC50 ([1]; PASMC, 0.5 h) [nM] | IC50 [2] [nM] | IC50 ([3]; PASMC, 0.5 h) [nM] | IC50 [4] [nM] | IC50 [3] [nM] | IC50 [1] [nM]
1 | NC(C(=O)Nc1cccc2c(-c3cn[nH]c3)c[nH]c12)c1ccccc1 (racemic) [Example 7, N-(3-(1H-pyrazol-4-yl)-1H-indol-7-yl)-2-amino-2-phenylacetamide] | 13 | 34 |  |  |  | 
2 | NCC(C(=O)Nc1cccc2c(-c3cn[nH]c3)c[nH]c12)C1CCCCC1 (racemic) [Example 22, 3-amino-2-cyclohexyl-N-[3-(1H-pyrazol-4-yl)-1H-indol-7-yl]propanamide] | 13 | 1.1 | 1.5 | 0.88 |  | 
3 | CN1CCN(CC(C(=O)Nc2cccc3c(-c4cn[nH]c4)c[nH]c23)c2ccccc2)CC1 (racemic) [Example 37, N-(3-(1H-pyrazol-4-yl)-1H-indol-7-yl)-3-(4-methylpiperazin-1-yl)-2-phenylpropanamide] | 8 | 0.71 | 6.2 | 0.43 |  | 
4 | CN1CCC(C(C(=O)Nc2cccc3c(-c4cn[nH]c4)c[nH]c23)c2ccccc2)CC1 (racemic) [Example 43, N-(3-(1H-pyrazol-4-yl)-1H-indol-7-yl)-2-(1-methylpiperidin-4-yl)-2-phenylacetamide] | 102 | 1.3 | 18 | 0.66 |  | 
5 | NCC(C(=O)Nc1cccc2c(-c3cn[nH]c3)c[nH]c12)C1CCCCC1 (single isomer, unassigned) [Example 23, N-(3-(1H-pyrazol-4-yl)-1H-indol-7-yl)-3-amino-2-cyclohexylpropanamide] | 3.5 | 0.19 | 4.3 | 0.13 |  | 
6 | CN1CCC(C(C(=O)Nc2cccc3c(-c4cn[nH]c4)c[nH]c23)c2ccccc2)CC1 (single isomer, unassigned) [Example 45, N-(3-(1H-pyrazol-4-yl)-1H-indol-7-yl)-2-(1-methylpiperidin-4-yl)-2-phenylacetamide] | 29 | 0.53 | 11 | 0.27 |  | 
7 | N[C@H](C(=O)Nc1cccc2c(-c3cn[nH]c3)c[nH]c12)c1ccccc1 [Example 9, (2S)-2-amino-2-phenyl-N-[3-(1H-pyrazol-4-yl)-1H-indol-7-yl]acetamide] | 15 | 0.24 | 2.2 |  |  | 
8 | NC[C@@H](NC(=O)c1cccc2c(-c3cn[nH]c3)n[nH]c12)c1ccccc1 [Example 135, N-[(1S)-2-amino-1-phenyl-ethyl]-3-(1H-pyrazol-4-yl)-1H-indazole-7-carboxamide] | 1.3 | 4.5 | 26 | 1.2 |  | 

The remaining lines, values ahead:

Row | IC50 ([1]; PASMC, 0.5 h) [nM] | IC50 [2] [nM] | IC50 ([3]; PASMC, 0.5 h) [nM] | IC50 [4] [nM] | IC50 [3] [nM] | IC50 [1] [nM] | SMILES
9 | 12 | 0.93 |  | 0.59 |  |  | NCC(Cc1ccccc1)C(=O)Nc1cccc2c(-c3cn[nH]c3)c[nH]c12 (racemic) [Example 52, 3-amino-2-benzyl-N-[3-(1H-pyrazol-4-yl)-1H-indol-7-yl]propanamide]
10 | 5.1 | 0.62 | 1.9 | 0.24 |  |  | COc1cccc(C(CN)NC(=O)c2cccc3c(-c4cn[nH]c4)c[nH]c23)c1 (single isomer, unassigned) [Example 136, N-(2-amino-1-(3-methoxyphenyl)ethyl)-3-(1H-pyrazol-4-yl)-1H-indole-7-carboxamide]
11 | 8.3 |  |  |  |  |  | COc1cccc(C(CN)C(=O)Nc2ncnc3c(-c4cn[nH]c4)c[nH]c23)c1 (stereo not drawn) [Example 154, N-(7-(1H-pyrazol-4-yl)-5H-pyrrolo[3,2-d]pyrimidin-4-yl)-3-amino-2-(3-methoxyphenyl)propanamide]
12 |  |  |  |  | 22 | 14 | NC[C@@H](C(=O)Nc1ccc2cnccc2c1)c1ccc(CO)cc1 [Netasudil-M1]
